In patent US10227357B2, “Compounds and methods for kinase modulation, and indications therefor” (Plexxikon Inc., priority 2012, dated 2019):

Target: T1, c-kit mutant D816V (Homo sapiens, UniProt P10721, D816V/DEL694-753)
T1 construct: residues 551-934, kinase insertion domain residues 694-753 deleted; 6x-histidine (N); made in house; host or cells: E. coli Arctic Express (DE3) RIL (Stratagene)
Experiment: c-Kit mutant D816V biochemical assay, AlphaScreen
Details: c-kit D816V biochemical inhibitory activity; read-out: Biochemical activity (IC50 μM) Kit D816V
Outline: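 Eight-point, threefold compound series incubated 30 min at room temperature with E. coli-produced D816V kinase, 10 μM ATP, Mg2+/Mn2+ HEPES buffer pH 7.2 and 5% DMSO. After EDTA stop, streptavidin and anti-phosphotyrosine (PY20) AlphaScreen beads gave the read-out, and IC50 was fitted from the concentration–signal curve.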

T1 sequence (P10721 with tags, fused parts or gaps DEL694-753/D816V): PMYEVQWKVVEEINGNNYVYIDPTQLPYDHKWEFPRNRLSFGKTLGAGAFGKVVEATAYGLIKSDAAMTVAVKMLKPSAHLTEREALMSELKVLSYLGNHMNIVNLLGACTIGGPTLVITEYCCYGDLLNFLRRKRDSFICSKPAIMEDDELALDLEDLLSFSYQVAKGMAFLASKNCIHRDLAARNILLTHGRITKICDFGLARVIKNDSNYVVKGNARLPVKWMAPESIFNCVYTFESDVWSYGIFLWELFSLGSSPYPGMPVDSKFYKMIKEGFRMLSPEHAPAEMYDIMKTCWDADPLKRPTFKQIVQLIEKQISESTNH

Structure (SMILES) | IC50
O=C(NCCc1ccc(F)cc1)NC1CCN(c2ncnc3[nH]ccc23)CC1 [P-0511, 1-[2-(4-fluorophenyl)ethyl]-3-[1-(7H-pyrrolo[2,3-d]pyrimidin-4-yl)-4-piperidyl]urea] | 10 to 200 µM
O=C(Nc1ccc(F)c(Cl)c1)NC1CCN(c2ncnc3[nH]ccc23)CC1 [P-0512, 1-(3-chloro-4-fluoro-phenyl)-3-[1-(7H-pyrrolo[2,3-d]pyrimidin-4-yl)-4-piperidyl]urea] | 10 to 200 µM
O=C(Nc1ccc(OC(F)(F)F)cc1)NC1CCN(c2ncnc3[nH]ccc23)CC1 [P-0513, 1-[1-(7H-pyrrolo[2,3-d]pyrimidin-4-yl)-4-piperidyl]-3-[4-(trifluoromethoxy)phenyl]urea] | 10 to 200 µM
O=C(Nc1ccc(C(F)(F)F)cc1)NC1CCN(c2ncnc3[nH]ccc23)CC1 [P-0514, 1-[1-(7H-pyrrolo[2,3-d]pyrimidin-4-yl)-4-piperidyl]-3-[4-(trifluoromethyl)phenyl]urea] | 10 to 200 µM
O=C(Nc1ccc(F)cc1)N1CC2CCC1CN2c1ncnc2cc(-c3ccc(F)cc3)sc12 (centres unmarked) [P-0546, N-(4-fluorophenyl)-5-[6-(4-fluorophenyl)thieno[3,2-d]pyrimidin-4-yl]-2,5-diazabicyclo[2.2.2]octane-2-carboxamide] | 1 to 10 µM
COc1cccc(CNC(=O)N2CC3CCC2CN3c2ncnc3cc(-c4ccc(F)cc4)sc23)c1 (centres unmarked) [P-0547, 5-[6-(4-fluorophenyl)thieno[3,2-d]pyrimidin-4-yl]-N-[(3-methoxyphenyl)methyl]-2,5-diazabicyclo[2.2.2]octane-2-carboxamide] | 0.0001 to 1 µM
COc1cccc([C@H](C)NC(=O)N2CC3CCC(C2)N3c2ncnc3cc(-c4ccc(F)cc4)sc23)c1 [P-0550, 8-[6-(4-fluorophenyl)thieno[3,2-d]pyrimidin-4-yl]-N-[(1S)-1-(3-methoxyphenyl)ethyl]-3,8-diazabicyclo[3.2.1]octane-3-carboxamide] | 1 to 10 µM
COc1cccc(CNC(=O)N2CC3CCC(C2)N3c2ncnc3cc(-c4ccc(F)cc4)sc23)c1 [P-0551, 8-[6-(4-fluorophenyl)thieno[3,2-d]pyrimidin-4-yl]-N-[(3-methoxyphenyl)methyl]-3,8-diazabicyclo[3.2.1]octane-3-carboxamide] | 1 to 10 µM
C[C@H](NC(=O)N1CCN(c2ncnc3cc(-c4ccc(F)cc4)sc23)CC1(C)C)c1cccc(F)c1 [P-0578, N-[(1S)-1-(3-fluorophenyl)ethyl]-4-[6-(4-fluorophenyl)thieno[3,2-d]pyrimidin-4-yl]-2,2-dimethyl-piperazine-1-carboxamide] | 1 to 10 µM
C[C@H](NC(=O)N1CCN(c2ncnc3cc(Br)sc23)CC1)c1ccc(F)cc1 [P-0597, 4-(6-bromothieno[3,2-d]pyrimidin-4-yl)-N-[(1S)-1-(4-fluorophenyl)ethyl]piperazine-1-carboxamide] | 1 to 10 µM
C[C@H](NC(=O)N1CCN(c2ncnc3cc(-c4ccc(F)cc4)sc23)C[C@H]1C)c1ccc(F)cc1 [P-0601, (2R)-N-[(1S)-1-(4-fluorophenyl)ethyl]-4-[6-(4-fluorophenyl)thieno[3,2-d]pyrimidin-4-yl]-2-methyl-piperazine-1-carboxamide] | 1 to 10 µM
O=C(NCc1ccccc1)N1CCN(c2ncnc3cc(Br)sc23)CC1 [P-0629, N-benzyl-4-(6-bromothieno[3,2-d]pyrimidin-4-yl)piperazine-1-carboxamide] | 10 to 200 µM
CCS(=O)(=O)Nc1ccc(-c2ncnc3cc(-c4ccc(F)cc4)sc23)cc1 [P-0630, N-[4-[6-(4-fluorophenyl)thieno[3,2-d]pyrimidin-4-yl]phenyl]ethanesulfonamide] | 1 to 10 µM
CC(=O)Nc1ccc(-c2ncnc3cc(-c4ccc(F)cc4)sc23)cc1 [P-0632, N-[4-[6-(4-fluorophenyl)thieno[3,2-d]pyrimidin-4-yl]phenyl]acetamide] | 10 to 200 µM
Nc1ccc(-c2ncnc3cc(-c4ccc(F)cc4)sc23)cc1 [P-0634, 4-[6-(4-fluorophenyl)thieno[3,2-d]pyrimidin-4-yl]aniline] | 1 to 10 µM
O=S(=O)(NCc1ccccc1)c1ccc(-c2ncnc3cc(-c4ccc(F)cc4)sc23)cc1 [P-0635, N-benzyl-4-[6-(4-fluorophenyl)thieno[3,2-d]pyrimidin-4-yl]benzenesulfonamide] | 0.0001 to 1 µM
Cc1ccc(S(=O)(=O)Nc2ccc(-c3ncnc4cc(-c5ccc(F)cc5)sc34)cc2)cc1 [P-0636, N-[4-[6-(4-fluorophenyl)thieno[3,2-d]pyrimidin-4-yl]phenyl]-4-methyl-benzenesulfonamide] | 0.0001 to 1 µM
O=C(Nc1ccc(F)cc1)N1CCN(c2ncnc3ccsc23)CC1 [P-0640, N-(4-fluorophenyl)-4-thieno[3,2-d]pyrimidin-4-yl-piperazine-1-carboxamide] | 0.0001 to 1 µM

Structure (SMILES) | IC50
CCCc1ccc(S(=O)(=O)NC2CC=C(c3ncnc4[nH]c(C)cc34)CC2)cc1 (centres unmarked) [P-0651, N-[4-(6-methyl-7H-pyrrolo[2,3-d]pyrimidin-4-yl)cyclohex-3-en-1-yl]-4-propyl-benzenesulfonamide] | 0.0001 to 1 µM
Cc1cc2c(C3=CCC(NS(=O)(=O)c4ccc(OC(C)C)cc4)CC3)ncnc2[nH]1 (centres unmarked) [P-0652, 4-isopropoxy-N-[4-(6-methyl-7H-pyrrolo[2,3-d]pyrimidin-4-yl)cyclohex-3-en-1-yl]benzenesulfonamide] | 1 to 10 µM
Cc1cc2c(C3=CCC(NS(=O)(=O)c4ccc(OC(F)F)cc4)CC3)ncnc2[nH]1 (centres unmarked) [P-0653, 4-(difluoromethoxy)-N-[4-(6-methyl-7H-pyrrolo[2,3-d]pyrimidin-4-yl)cyclohex-3-en-1-yl]benzenesulfonamide] | 1 to 10 µM
Cc1cc2c(N3CCC(NS(=O)(=O)c4ccc(OC(F)F)cc4)CC3)ncnc2[nH]1 [P-0656, 4-(difluoromethoxy)-N-[1-(6-methyl-7H-pyrrolo[2,3-d]pyrimidin-4-yl)-4-piperidyl]benzenesulfonamide] | 10 to 200 µM
Cc1cc2c(N3CCC(NS(=O)(=O)c4ccc(C(C)C)cc4)CC3)ncnc2[nH]1 [P-0657, 4-isopropyl-N-[1-(6-methyl-7H-pyrrolo[2,3-d]pyrimidin-4-yl)-4-piperidyl]benzenesulfonamide] | 10 to 200 µM
CCCc1ccc(S(=O)(=O)NC2CCN(c3ncnc4[nH]c(C)cc34)CC2)cc1 [P-0658, N-[1-(6-methyl-7H-pyrrolo[2,3-d]pyrimidin-4-yl)-4-piperidyl]-4-propyl-benzenesulfonamide] | 1 to 10 µM
Cc1ccc(S(=O)(=O)NC2CCN(c3ncnc4[nH]c(-c5cn(C)nc5C)cc34)CC2)cc1 [P-0659, N-[1-[6-(1,3-dimethylpyrazol-4-yl)-7H-pyrrolo[2,3-d]pyrimidin-4-yl]-4-piperidyl]-4-methyl-benzenesulfonamide] | 0.0001 to 1 µM
COc1cc(-c2cc3c(N4CCC(NS(=O)(=O)c5ccc(C)cc5)CC4)ncnc3[nH]2)ccn1 [P-0660, N-[1-[6-(2-methoxy-4-pyridyl)-7H-pyrrolo[2,3-d]pyrimidin-4-yl]-4-piperidyl]-4-methyl-benzenesulfonamide] | 0.0001 to 1 µM
Cc1csc(-c2cc3c(N4CCC(NS(=O)(=O)c5ccc(OC(F)(F)F)cc5)CC4)ncnc3[nH]2)c1 [P-0661, N-[1-[6-(4-methyl-2-thienyl)-7H-pyrrolo[2,3-d]pyrimidin-4-yl]-4-piperidyl]-4-(trifluoromethoxy)benzenesulfonamide] | 10 to 200 µM
CC1(C)C=C(c2cc3c(N4CCC(NS(=O)(=O)c5ccc(OC(F)(F)F)cc5)CC4)ncnc3[nH]2)CC(C)(C)O1 [P-0663, N-[1-[6-(2,2,6,6-tetramethyl-3H-pyran-4-yl)-7H-pyrrolo[2,3-d]pyrimidin-4-yl]-4-piperidyl]-4-(trifluoromethoxy)benzenesulfonamide] | 10 to 200 µM
COc1cc(-c2cc3c(N4CCC(NS(=O)(=O)c5ccc(Cl)cc5)CC4)ncnc3[nH]2)ccn1 [P-0666, 4-chloro-N-[1-[6-(2-methoxy-4-pyridyl)-7H-pyrrolo[2,3-d]pyrimidin-4-yl]-4-piperidyl]benzenesulfonamide] | 0.0001 to 1 µM
C[C@H](NC(=O)N1CCN(c2ncnc3ccsc23)CC1(C)C)c1cccc(Cl)c1 [P-0677, N-[(1S)-1-(3-chlorophenyl)ethyl]-2,2-dimethyl-4-thieno[3,2-d]pyrimidin-4-yl-piperazine-1-carboxamide] | 1 to 10 µM
CC(C)(NC(=O)N1CCN(c2ncnc3cc(-c4ccc(F)cc4)sc23)CC1(C)C)c1ccccc1 [P-0678, 4-[6-(4-fluorophenyl)thieno[3,2-d]pyrimidin-4-yl]-2,2-dimethyl-N-(1-methyl-1-phenyl-ethyl)piperazine-1-carboxamide] | 1 to 10 µM
C[C@H](NC(=O)N1CCN(c2ncnc3[nH]c(-c4ccc(C#N)cc4)cc23)CC1(C)C)c1ccc(F)cc1 [P-0685, 4-[6-(4-cyanophenyl)-7H-pyrrolo[2,3-d]pyrimidin-4-yl]-N-[(1S)-1-(4-fluorophenyl)ethyl]-2,2-dimethyl-piperazine-1-carboxamide] | 1 to 10 µM
C[C@H](NC(=O)N1CCN(c2ncnc3[nH]c(-c4ccc(C#N)cc4)cc23)CC1(C)C)c1ccc(Cl)cc1 [P-0686, N-[(1S)-1-(4-chlorophenyl)ethyl]-4-[6-(4-cyanophenyl)-7H-pyrrolo[2,3-d]pyrimidin-4-yl]-2,2-dimethyl-piperazine-1-carboxamide] | 10 to 200 µM
C[C@H](NC(=O)N1CCN(c2ncnc3[nH]c(-c4ccc(C#N)cc4)cc23)C[C@H]1C)c1cccc(F)c1 [P-0693, (2R)-4-[6-(4-cyanophenyl)-7H-pyrrolo[2,3-d]pyrimidin-4-yl]-N-[(1S)-1-(3-fluorophenyl)ethyl]-2-methyl-piperazine-1-carboxamide] | 0.0001 to 1 µM
C[C@H](NC(=O)N1CCN(c2ncnc3[nH]c(-c4ccc(C#N)cc4)cc23)CC1)c1ccc(F)cc1 [P-0696, 4-[6-(4-cyanophenyl)-7H-pyrrolo[2,3-d]pyrimidin-4-yl]-N-[(1S)-1-(4-fluorophenyl)ethyl]piperazine-1-carboxamide] | 0.0001 to 1 µM
